Columns and labels:
[1] = tested on: P301S mouse tauopathy model; settings: cited from earlier work
KIT V559D = molecular target: T1, KIT V559D (Homo sapiens, UniProt P10721, V559D); assay: DiscoverX KINOMEscan kinase competition binding assay, KIT V559D; settings: 2 μM compound concentration
T1 construct: purchased DiscoverX Corporation (Fremont, CA), contract assay
Procedure: (§1) DiscoverX® KINOMEscan™ In Vitro Kinase Competition Binding Assay
(§2) Compound activity (% binding) is monitored by measuring the amount of kinase captured in test versus control samples by using a qPCR method that detects the associated DNA label. The binding activity is converted to % inhibition and an IC50 value is determined for CSF-1R fold-selectivity assessment.
(§3) Assays to monitor binding to a 468-kinase panel are conducted at DiscoverX® Corporation (Fremont, CA). Test compound is provided as a 10 mM stock in 100% DMSO and evaluated at […] final concentrations. Kinases are tagged with DNA for qPCR detection. […] The liganded beads are blocked with excess biotin and washed with blocking buffer (Pierce SeaBlock, 1% BSA, 0.05% Tween 20 and 1 mM DTT) to remove unbound ligand and to reduce nonspecific binding. […] Test compound is prepared as a 40×stock in 100% DMSO and directly diluted into the assay. All reactions are performed in polypropylene 384-well plates in a final volume of 0.02 mL. […] The kinase concentration in the eluates is measured by qPCR. […]
(§4) The percent inhibition values, and the 3-point concentration response data are subsequently determined and analyzed with NGR software, and non-standard IC50 values are calculated from the resulting curve fit. […]

human PDGFRβ = molecular target: T2, human PDGFRβ (Homo sapiens, UniProt P09619); assay: DiscoverX PathHunter RTK cell based functional assay, PDGFRβ; settings: PDGFRβ U2OS cells, 3 nM PDGF-BB agonist, n=4
T2 construct: enzyme fragment for Enzyme Fragment Complementation (β-galactosidase fragment); host or cells: U2OS
Procedure: DiscoverX® PathHunter Receptor Tyrosine Kinase (RTK) Cell Based Functional Assay
For in vitro PDGFRβ (Accession NM_002609, Part No. 93-0493C3) and c-Kit (Accession NM_000222, Part No. 93-0853C3) cellular assays, the test compounds are prepared in DMSO to make up a 10 mM stock solution. The stock solution is serially diluted two-fold in DMSO to obtain a twenty-point curve with final compound concentrations ranging from 20.0 μM to 0.019 nM.
DiscoverX® PathHunter Receptor Tyrosine Kinase (RTK) cell based functional assays are utilized to profile compounds using Enzyme Fragment Complementation technology with human PDGFRβ U2OS cells and human c-Kit U2OS cells. Cells are continuously cultured from cell passage 5 up to cell passage 30 in AssayComplete™ Cell Culture Kit-103 (DiscoverX®, 92-3103G) media containing 500 μg/mL G418 and 250 μg/mL hygromycin. PDGFRβ or c-Kit cells (27 μL) in media (DiscoverX®, 93-0563R16B) are seeded at 1.5×10^4 cells/well into all wells of a Corning 384 poly-d-lysine coated white plate. The cell plates are then incubated overnight at 37° C., 5.0% CO2. Compound serial dilutions are then added to rows A-P, columns 3-22. DMSO and inhibitor controls are added to rows A-P, columns 1-2 and 23-24, respectively. Cell plates with compound or controls are incubated for 1 hour at 37° C., 5.0% CO2. […] After 1 hour, cell plates are read on a chemiluminescence capable plate reader. […]

KIT L576P = molecular target: T3, KIT L576P (Homo sapiens, UniProt P10721, L576P); assay: DiscoverX KINOMEscan kinase competition binding assay, KIT L576P; settings: 2 μM compound concentration
T3 construct: purchased DiscoverX Corporation (Fremont, CA), contract assay
Procedure: as §1, §2, §3, §4

PDGFRB = molecular target: T4, PDGFRB (Homo sapiens, UniProt P09619); assay: DiscoverX KINOMEscan kinase competition binding assay, PDGFRB
T4 construct: purchased DiscoverX Corporation (Fremont, CA), contract assay
Procedure: as §1, §2, §3, §4

KIT V559D V654A = molecular target: T5, KIT V559D V654A (Homo sapiens, UniProt P10721, V559D/V654A); assay: DiscoverX KINOMEscan kinase competition binding assay, KIT V559D V654A; settings: 2 μM compound concentration
T5 construct: purchased DiscoverX Corporation (Fremont, CA), contract assay
Procedure: as §1, §2, §3, §4

468-kinase panel = assay: DiscoverX KINOMEscan kinase competition binding assay, whole panel; design: species or system human; settings: of 468 protein kinases, 2 μM compound concentration
Procedure: as §1, §2
Assays to monitor binding to a 468-kinase panel are conducted at DiscoverX® Corporation (Fremont, CA). […] Kinases are tagged with DNA for qPCR detection. […] The liganded beads are blocked with excess biotin and washed with blocking buffer (Pierce SeaBlock, 1% BSA, 0.05% Tween 20 and 1 mM DTT) to remove unbound ligand and to reduce nonspecific binding. […] Test compound is prepared as a 40×stock in 100% DMSO and directly diluted into the assay. All reactions are performed in polypropylene 384-well plates in a final volume of 0.02 mL. […] The kinase concentration in the eluates is measured by qPCR. The results for primary screen binding interactions are reported as ‘% Ctrl’, where lower numbers indicate stronger hits in the matrix.
Percent of control (% Ctrl) calculation: […]
as §4

KIT = KIT (Homo sapiens, UniProt P10721); assay: biochemical
Procedure: as §1, §2, §3, §4

[2] = tested on: 5xFAD model of Alzheimer's disease; settings: cited from earlier work

T3 sequence (P10721 26-976 L576P): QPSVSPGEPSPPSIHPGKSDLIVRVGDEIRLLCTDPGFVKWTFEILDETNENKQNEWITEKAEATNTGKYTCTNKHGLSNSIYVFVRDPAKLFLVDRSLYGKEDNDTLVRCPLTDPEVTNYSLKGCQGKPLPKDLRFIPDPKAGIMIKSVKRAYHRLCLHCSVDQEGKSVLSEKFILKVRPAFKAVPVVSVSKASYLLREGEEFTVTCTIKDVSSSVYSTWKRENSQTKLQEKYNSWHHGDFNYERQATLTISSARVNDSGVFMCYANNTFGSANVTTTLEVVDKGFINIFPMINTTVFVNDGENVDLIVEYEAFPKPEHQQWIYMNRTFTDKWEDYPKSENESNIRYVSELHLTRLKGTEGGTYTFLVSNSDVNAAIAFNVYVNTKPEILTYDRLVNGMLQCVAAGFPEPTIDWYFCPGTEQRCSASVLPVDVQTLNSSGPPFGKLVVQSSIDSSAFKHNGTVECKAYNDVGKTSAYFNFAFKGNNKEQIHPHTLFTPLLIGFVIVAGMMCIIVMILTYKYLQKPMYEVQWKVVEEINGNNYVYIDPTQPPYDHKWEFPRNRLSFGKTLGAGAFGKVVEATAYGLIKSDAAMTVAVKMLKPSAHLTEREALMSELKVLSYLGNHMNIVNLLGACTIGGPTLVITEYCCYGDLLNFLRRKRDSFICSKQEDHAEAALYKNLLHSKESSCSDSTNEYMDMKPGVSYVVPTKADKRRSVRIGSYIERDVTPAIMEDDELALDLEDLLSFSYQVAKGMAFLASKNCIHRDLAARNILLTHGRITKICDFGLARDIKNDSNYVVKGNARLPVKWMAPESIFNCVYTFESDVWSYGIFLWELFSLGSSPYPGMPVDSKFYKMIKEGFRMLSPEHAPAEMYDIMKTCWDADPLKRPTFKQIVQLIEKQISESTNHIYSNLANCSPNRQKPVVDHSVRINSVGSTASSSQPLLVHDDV
T1 sequence (P10721 26-976 V559D): as the sequence (P10721 26-976 L576P) above, with V534D, P551L counted along it
Chain of KIT (P10721 26-976): as the sequence (P10721 26-976 L576P) above, with P551L counted along it
T2 sequence (P09619 33-1106): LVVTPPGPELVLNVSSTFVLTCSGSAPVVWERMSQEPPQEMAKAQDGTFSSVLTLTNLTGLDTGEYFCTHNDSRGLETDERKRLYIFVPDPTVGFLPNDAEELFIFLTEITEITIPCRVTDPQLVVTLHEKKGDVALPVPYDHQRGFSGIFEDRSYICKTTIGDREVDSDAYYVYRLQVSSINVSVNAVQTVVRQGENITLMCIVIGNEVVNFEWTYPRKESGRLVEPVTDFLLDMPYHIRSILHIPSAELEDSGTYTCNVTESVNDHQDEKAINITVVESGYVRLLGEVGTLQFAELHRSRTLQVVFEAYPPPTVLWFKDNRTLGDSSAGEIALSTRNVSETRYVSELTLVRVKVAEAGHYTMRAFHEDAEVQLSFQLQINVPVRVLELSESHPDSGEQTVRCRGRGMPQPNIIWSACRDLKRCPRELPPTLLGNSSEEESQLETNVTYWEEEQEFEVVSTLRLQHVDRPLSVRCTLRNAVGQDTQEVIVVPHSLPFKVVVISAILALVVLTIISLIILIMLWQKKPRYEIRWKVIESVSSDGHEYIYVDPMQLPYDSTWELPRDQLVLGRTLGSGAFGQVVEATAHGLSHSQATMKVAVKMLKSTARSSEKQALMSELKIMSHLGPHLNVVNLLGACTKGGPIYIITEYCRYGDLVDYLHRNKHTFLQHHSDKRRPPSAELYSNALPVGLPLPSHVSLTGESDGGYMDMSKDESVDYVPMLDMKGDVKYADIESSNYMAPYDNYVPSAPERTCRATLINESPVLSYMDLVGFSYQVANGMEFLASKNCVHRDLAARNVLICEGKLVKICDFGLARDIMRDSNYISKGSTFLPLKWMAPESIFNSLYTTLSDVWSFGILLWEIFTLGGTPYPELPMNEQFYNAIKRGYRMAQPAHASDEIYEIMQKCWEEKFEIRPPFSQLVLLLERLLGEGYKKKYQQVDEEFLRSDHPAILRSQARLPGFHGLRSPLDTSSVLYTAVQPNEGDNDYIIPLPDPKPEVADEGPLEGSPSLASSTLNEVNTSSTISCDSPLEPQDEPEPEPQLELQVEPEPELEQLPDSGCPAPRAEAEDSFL
T4 sequence (P09619 33-1106): as above
T5 sequence (P10721 26-976 V559D/V654A): as the sequence (P10721 26-976 L576P) above, with V534D, P551L, V629A counted along it

Question: With `CC1(C)CC=C(c2nc(C3CC(C)(C)OC(C)(C)C3)ccc2NC(=O)c2nc(C#N)c[nH]2)CC1` [JNJ-40346527] as the compound, how does the “effect on tau phosphorylation and aggregation” value [1] read?
Answer: inhibit tau phosphorylation and aggregation

Question: Which inhibition at 2 µM (KIT V559D) does the source give for `COc1ccc(COc2ncc(Cc3ccnc(-c4cnn(C)c4)n3)cc2OC)nc1` [Example 1, 4-({5-Methoxy-6-[(5-methoxypyridin-2-yl)methoxy]pyridin-3-yl}methyl)-2-(1-methyl-1H-pyrazol-4-yl)pyrimidine] here?
Answer: 99.5%

Question: And the IC50 (human PDGFRβ)?
Answer: > 20 µM

Question: What about the inhibition at 2 µM (KIT L576P) of the same compound?
Answer: 96.4%

Question: And the inhibition at 2 µM (PDGFRB)?
Answer: 90.8%

Question: And the inhibition at 2 µM (KIT V559D V654A)?
Answer: 84%

Question: And the “number of kinases showing less than 35% control activity (or >65% inhibition)” value (468-kinase panel)?
Answer: 3 kinases

Question: What about the inhibition at 2 µM (KIT) of the same compound?
Answer: 99.4%

Question: With `FC(F)(F)c1ccc(CNc2ccc(Cc3c[nH]c4ncc(Cl)cc34)cn2)cn1` [PLX3397] as the compound, how does the “effect on amyloid pathology” value [2] read?
Answer: Reductions in intraneuronal amyloid, neuritic plaque formation and pre-fibrillar and fibrillar oligomers

Question: What about the “effect on cognitive function” value [2] of the same compound?
Answer: improvements in cognitive function

Source: US12577229B2, “Substituted {5-methoxy-6-[(5-methoxypyridin-2-yl)methoxy]pyridin-3-yl} methyl compounds as CSF-1R inhibitors” (Eli Lilly and Company, priority 2020, dated 2026)
